IC50 data for 86 compounds are collected here from PubChem BioAssay AID504322 (Emory University Molecular Libraries Screening Center, 2011).

Calls of active or inactive are those of the source. No rule for the calls is given here.

This experiment relates to CHOP reporter cell assay, percent of control. Nature of the experiment: CHOP reporter inhibitor potency, dose response, cell-based (AID 504322).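 Also: CHO cells carrying a CHOP reporter stimulated with tunicamycin to induce ER stress; potency is for inhibition of the stress-induced reporter signal.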
What is called IC50 is the concentration needed to halve the response being measured. `Cc1sc(NC(=O)c2cccc([N+](=O)[O-])c2)c(C(N)=O)c1-c1ccc(C(C)(C)C)cc1`: the IC50 is > 10 µM (inactive).

Consider `Cc1cc(Cl)n2c(nc3cc(F)c(F)cc32)c1C#N`, for which the IC50 was > 10 µM (inactive).

As to `CCOc1cc(NC(=O)CCl)c(OCC)cc1NC(=O)CCl`, the IC50 was > 10 µM (inactive).

As to `CC(CNC(=S)Nc1cc(F)cc(F)c1)CSc1ccc(Cl)cc1` (stereo unspecified), the IC50 is > 10 µM (inactive).

With `Cc1cc(Nc2ccc(Cl)cc2)nc(NCc2ccccc2)n1`, the IC50 was > 10 µM (inactive).

Regarding `Cc1nc2c(=O)n(C)c(=O)n(C)c2nc1Cl`, the IC50 is 3.79 µM (inactive).

Turning to `Cc1ccc2nc(NC(=O)C3CCN(S(=O)(=O)c4cc([N+](=O)[O-])ccc4Cl)CC3)sc2c1`, the IC50 is 3.51 µM.

As for `O=c1cc(-c2c(F)c(F)c(F)c(F)c2F)oc2c(F)c(F)c(F)c(F)c12`, the IC50 was 3.98 µM.

`Oc1ccc(N=Nc2cccc(C(F)(F)F)c2)cc1C=Nc1ccc(N2CCOCC2)cc1`: the IC50 was 6.97 µM (inactive).

As for `CCCCC(CC)Cn1c(N)c(C#N)c2nc3ccccc3nc21` (stereo unspecified), the IC50 is 3.98 µM.

`Cc1ccc(-c2nc(-c3ccccn3)no2)cc1`: the IC50 is 4.47 µM.

In the case of `CC(C)(C)c1ccc(C(=O)NNC(=O)c2cccc(Br)c2)cc1`, the IC50 was > 10 µM (inactive).

On to `Cn1c(-c2cccc(OCc3ccccc3)c2)nc2c1c(=O)[nH]c(=O)n2Cc1ccccc1`, for which the IC50 is > 10 µM (inactive).

Consider `Cc1ccc(-c2cc3c(nn2)-c2ccccc2C3=O)cc1`, for which the IC50 is 6.03 µM (inactive).

Take `Cc1ccc2[nH]c(O)c(N=NC(=O)CCc3ccccc3)c2c1Br`: the IC50 was 4.27 µM.

In the case of `Cc1cc(C)n(-c2nc(N(c3ccccc3)c3ccccc3)nc(-n3nc(C)cc3C)n2)n1`, the IC50 was 9.34 µM (inactive).

On to `COc1ccc(N2C(=O)CC(Sc3nnnn3-c3ccc(F)cc3)C2=O)cc1` (stereo unspecified), for which the IC50 is 0.24 µM.

Consider `CC(C)Cn1c(N)c(C(=O)COC(=O)C2CCCCC2)c(=O)n(C)c1=O`, for which the IC50 was > 10 µM (inactive).

Regarding `CCCCC(CC)C(=O)Oc1ccc(O)c(C(C)(C)C)c1` (stereo unspecified), the IC50 is 2.37 µM (inactive).

For `CC(C)C(=O)N1CCC(CN=Cc2c(O)n(C3CCCCC3)c(=O)n(C3CCCCC3)c2=O)CC1`, the IC50 is 9.9 µM (inactive).

Consider `CCCCc1ccc(NC(=S)Nc2ccc(Cl)c(S(=O)(=O)N(C)C)c2)cc1`, for which the IC50 is > 10 µM (inactive).

`CN1/C(=C\C=C\C2=[N+](C)c3ccc4ccccc4c3C2(C)C)C(C)(C)c2ccccc21`: the IC50 was 0.41 µM (inactive).

As to `CC1=CC2/C=C(\C)CCC(O)C(O)/C=C/C(=O)C23C(=O)NC(CC(C)C)C3C1C` (stereo unspecified), the IC50 was 9.69 µM (inactive).

`CC1C/C(=C/c2ccccn2)C(=O)/C(=C/c2ccccn2)C1` (stereo unspecified): the IC50 is 2.49 µM.

Consider `CC1=C/C(=N\OS(=O)(=O)c2ccccc2)C(C)=CC1=O`, for which the IC50 was 0.9 µM.

`OC(CNCC(c1ccc(Cl)cc1Cl)c1c[nH]c2ccccc12)c1ccccc1` (stereo unspecified): the IC50 is 1.79 µM.

On to `Cc1ccc(OCC(=O)N2N=C(C(F)(F)F)CC2(O)C(C)(C)C)cc1C` (stereo unspecified), for which the IC50 was 5.25 µM (inactive).

With `CC1=CC(C)(C)N2C(=O)C3(SCC(=O)N3c3ccc(F)cc3)c3cc(C)cc1c32` (stereo unspecified), the IC50 is > 10 µM (inactive).

In the case of `S=C(Nc1ccccc1)Nc1ccc(OCc2ccc(Cl)cc2Cl)cc1`, the IC50 was 0.33 µM.

Turning to `Nc1cc(Cl)c2nonc2c1[N+](=O)[O-]`, the IC50 was 5.89 µM (inactive).

As to `CCOC(=O)c1cnc(-n2nc(C)cc2C)nc1Nc1ccc(O)cc1`, the IC50 is 1.51 µM.

Consider `CC1CCN(C(=O)/C(=C/c2ccccc2Cl)c2ccccc2)CC1`, for which the IC50 was 3.83 µM (inactive).

For the compound `CN(C)c1ccc(/C=C2\SC(=O)N(CCc3nnc(N)s3)C2=O)cc1`, the IC50 is 9.8 µM (inactive).

Turning to `Cc1ccc2sc(N(CCCN(C)C)C(=O)c3nc4ccccc4s3)nc2c1C`, the IC50 is 9.48 µM (inactive).

Consider `O=[N+]([O-])c1c(NCCCO)cc(Sc2nc3ccccc3s2)c2nonc12`, for which the IC50 is > 10 µM (inactive).

For the compound `Cc1cc2c(cc1C)CSC(c1ccccc1O)SC2`, the IC50 is > 10 µM (inactive).

In the case of `O=C1N(c2ccccc2)C[C@@H]2C[C@@H](c3cccs3)N3CCC[C@@]123`, the IC50 is 5.69 µM (inactive).

Consider `CN1C(=O)/C(=C/c2cc(N=Nc3ccccc3)ccc2O)SC1=S`, for which the IC50 is 4.49 µM (inactive).

As to `Cc1ccc(C)c(NC(=S)NC(NC(=O)/C=C/c2ccccc2)C(Cl)(Cl)Cl)c1` (stereo unspecified), the IC50 is 9.63 µM (inactive).

Turning to `O=C(O)c1cccc(COc2ccc(CO)cc2Cl)c1`, the half-maximal inhibitory concentration (IC50) was below 0.16 µM.

For the compound `OC(CNCCc1ccc(C(F)(F)F)cc1)COc1ccc2ccccc2c1` (stereo unspecified), the IC50 was 9.41 µM (inactive).

Regarding `Cc1ccc(C(C)C)c(OCC(=O)N/N=C/C2CCCCC2)c1`, the IC50 was 9.65 µM (inactive).

Take `COc1cc(/C=C/c2nc(N)nc(-c3ccccc3O)n2)cc(OC)c1OC`: the IC50 was > 10 µM (inactive).

Turning to `Cc1ccc(S(=O)(=O)CC#CCOC(=O)c2ccc([N+](=O)[O-])cc2)cc1`, the IC50 was > 10 µM (inactive).

Regarding `CCOc1cc(NC(=S)NCC(C)C)c(OCC)cc1NC(=O)c1cccs1`, the IC50 is > 10 µM (inactive).

As for `Cc1cc(C(C)(C)C)oc1C(=O)N1CCN(C(=O)c2oc(C(C)(C)C)cc2C)CC1`, the IC50 is 9.99 µM (inactive).

`CC(=O)C(C(C)=O)c1c(Cl)c(O)c(O)c2c(C(=O)c3ccccc3)coc12`: the IC50 is 5.67 µM (inactive).

Turning to `Cc1cccc(/C=C2/S/C(=N/N=C3\CC4CCC3(C)C4(C)C)NC2=O)c1` (stereo unspecified), the IC50 was 4.97 µM (inactive).

For the compound `CC(C)NC(=O)c1ccccc1NC(=O)/C=C/c1cccc([N+](=O)[O-])c1`, the IC50 is 5.83 µM (inactive).

In the case of `C/C(=N\OCc1cccc(C(=O)O)c1)c1ccc(Cl)cc1`, the IC50 is 6 µM (inactive).

Consider `Cc1ccc(NN2C(=O)C=C(c3ccc(Cl)cc3)C2=O)cc1`, for which the IC50 is 2.09 µM.

For `O=C(Nc1ccc(C(O)(C(F)(F)F)C(F)(F)F)cc1)c1ccc(Cl)c([N+](=O)[O-])c1`, the IC50 was 4.58 µM (inactive).

With `CCOc1cc(C(=O)CSc2nnc(CNc3ccc(Cl)cc3)o2)ccc1NC(=O)CC`, the IC50 is 9.47 µM (inactive).

As to `COc1ccc(C(C(=O)NC2CCCCC2)N(C(=O)CCl)c2cccc(Cl)c2)cc1` (stereo unspecified), the IC50 is 9.57 µM (inactive).

Consider `Cc1cccc(/C=C/c2nc3ccccc3c(=O)[nH]2)c1`, for which the IC50 was > 10 µM (inactive).

As to `CSC(SC)=C(C#N)C(=O)c1ccccc1`, the IC50 is > 10 µM (inactive).

Turning to `C=CCn1c(COc2ccccc2)nnc1SC(C)C(=O)N/N=C/c1cc(Cl)ccc1O` (stereo unspecified), the IC50 was 9.66 µM (inactive).

Turning to `Cc1cc(Cl)ccc1OCc1n[nH]c(=S)n1C1CCCCC1`, the IC50 was > 10 µM (inactive).

On to `CN(C(=O)CCl)C1CCCc2ccccc21` (stereo unspecified), for which the IC50 was > 10 µM (inactive).

Regarding `CCn1c(C)nc2cc(-c3nc4n(n3)Cc3ccccc3-4)ccc21`, the IC50 is < 0.16 µM (inactive).

Turning to `Cc1ccc(NC(=O)CSc2nc3ccccc3c3nc(CCc4c(C)n[nH]c4C)nn23)cc1F`, the IC50 is 9.71 µM (inactive).

With `S=C(NCCc1ccc(Cl)cc1)Nc1ccc(Cl)cc1Cl`, the IC50 was 9.93 µM (inactive).

Turning to `Cc1ccc(C(=O)CC(=O)c2cc(Cl)ccc2O)cc1`, the IC50 is 5.51 µM (inactive).

For the compound `O=C(CNc1cccc(C(F)(F)F)c1)N/N=C/c1cccc(Br)c1`, the IC50 is > 10 µM (inactive).

As for `Cc1ccc2nc(NC(=O)CSCC(=O)OCC(=O)c3ccc(Br)cc3)sc2c1`, the IC50 is 5.35 µM (inactive).

Consider `Cc1cccc(NS(=O)(=O)c2ccc(C3CCCCC3)cc2)c1`, for which the IC50 is 6.93 µM (inactive).

With `C=C(C)Cn1c(N2CCC(Cc3ccccc3)CC2)nc2c1c(=O)[nH]c(=O)n2C`, the IC50 was 8 µM (inactive).

In the case of `C=CCn1c(C)cc(C2=NNC(=NCC)SC2)c1C`, the IC50 is below 0.16 µM.

With `CCN=C1NN=C(c2cc(C)n(Cc3ccco3)c2C)CS1`, the IC50 was below 0.16 µM.

For `O=S(=O)(Nc1cccc2c1CCCC2)c1cccc(C(F)(F)F)c1`, the IC50 is 9.51 µM (inactive).

As for `CCCCCn1c(SCCC(C)C)nc2c1c(=O)[nH]c(=O)n2C`, the IC50 is 6.85 µM (inactive).

On to `C=C1C(=O)O[C@@H]2C[C@@H](C)[C@@H]3C=CC(=O)[C@@]3(C)[C@@H](OC(C)=O)[C@H]12`, for which the IC50 is 2.48 µM.

In the case of `Cc1ccc2nc(-c3cc(-c4ccccc4)no3)cn2c1`, the IC50 was 9.74 µM (inactive).

Turning to `COc1ccc(OCc2cccc(C(=O)Nn3cc([N+](=O)[O-])cn3)c2)cc1`, the IC50 was 0.85 µM.

For `COc1ccc(/C=C2/SC(=S)N(CCCC(=O)Nc3ccc(O)cc3)C2=O)cc1`, the IC50 is 0.25 µM.

For `CCc1ccc(/C=c2\s/c(=C\C(=O)C(C)(C)C)[nH]c2=O)cc1`, the IC50 is 9.29 µM (inactive).

Regarding `CCCCCCCn1c(=O)c(C(=O)Nc2cnccn2)c(O)c2ccccc21`, the IC50 is 3.68 µM.

For `O=C1C(C2=NC(c3ccccn3)C3C(=O)N(c4ccc(OC(F)(F)F)cc4)C(=O)C23)=C(O)c2ccccc21` (stereo unspecified), the IC50 is 4.57 µM.

For the compound `C=C(C=O)CC1CC(O)[C@]2(C)OC3CC4OC5C[C@]6(C)O[C@]7(C)CCC8OC9C[C@]%10(C)OC%11C(C)=CC(=O)OC%11CC%10OC9C[C@@H](C)C8OC7CC6O[C@]5(C)CC5OC5C4OC3CC2O1` (stereo partly specified), the IC50 is 0.82 µM.

Regarding `CCOc1ccc(/C=N/NC(=O)c2cc(-c3ccco3)nc3ccccc23)cc1`, the IC50 is 5.15 µM (inactive).

As for `CC(=O)C1=C(c2ccc(Br)cc2)C(=O)c2ccccc2C1=O`, the IC50 is 5.57 µM (inactive).

Take `Cc1nc2ccccn2c1C(=O)N=Nc1c(O)n(CCC(C)C)c2ccccc12`: the IC50 was > 10 µM (inactive).

`CCCCn1c(NS(=O)(=O)c2ccc(C)cc2)c(S(=O)(=O)c2ccccc2)c2nc3ccccc3nc21`: the IC50 was > 10 µM (inactive).

Turning to `Cc1nn(CCC#N)c2nc(-c3ccccc3)cc(C(F)(F)F)c12`, the IC50 is 4 µM (inactive).

Consider `CCOC(=O)c1c(N)sc(C(O)(C(F)(F)F)C(F)(F)F)c1-c1ccc(Cl)cc1`, for which the IC50 was 9.37 µM (inactive).

As to `Cc1cc(-c2[nH]nc3c2C(c2ccc(Cl)cc2)C(C#N)=C(N)O3)c(C)s1` (stereo unspecified), the IC50 was 7.25 µM (inactive).
